Read-outs that look alike come from different tables or passages of the source.
Assays:
NET = target: T1, NET (Rattus norvegicus, UniProt Q63380); test: NE uptake inhibition assay, rat hypothalamus synaptosomes; assay type: biochemical; settings: read-out: NET IC50 (norepinephrine reuptake inhibition)
T1 construct: from tissue; host or cells: rat hypothalamus synaptosomes

[1] = system: noradrenergic, histaminergic and cholinergic receptors; settings: Sperling & Demling 1997; cited from earlier work
5HT2C receptor = target: T2, 5HT2C receptor (Homo sapiens, UniProt P28335); settings: Claghorn & Lesem 1996; cited from earlier work
T2 sequence (P28335 33-458): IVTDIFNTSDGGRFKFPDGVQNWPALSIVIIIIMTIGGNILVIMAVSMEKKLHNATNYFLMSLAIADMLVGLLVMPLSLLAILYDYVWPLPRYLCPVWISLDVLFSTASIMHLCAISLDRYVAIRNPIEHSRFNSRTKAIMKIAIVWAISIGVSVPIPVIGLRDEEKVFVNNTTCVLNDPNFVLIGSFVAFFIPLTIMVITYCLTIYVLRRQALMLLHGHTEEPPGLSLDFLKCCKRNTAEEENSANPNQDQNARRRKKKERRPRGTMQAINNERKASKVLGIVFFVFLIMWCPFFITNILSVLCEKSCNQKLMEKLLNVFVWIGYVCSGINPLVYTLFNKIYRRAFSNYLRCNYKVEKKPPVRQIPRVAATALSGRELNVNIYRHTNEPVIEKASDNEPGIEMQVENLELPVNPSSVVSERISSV

[2] = system: animal models of depression; settings: cited from earlier work
REM sleep = settings: 25-400 mg, cited from earlier work
[3] = cited from earlier work
depression = settings: based on HAMD score reduction; cited from earlier work
major depression = settings: subsequent clinical trials; Paanakker et al. 1998; cited from earlier work
L5 SNL rats = test: L5-Single Nerve Ligation model of neuropathic pain, tactile allodynia (von Frey); assay type: in vivo, rat; settings: for antiallodynic effect: 8 days post surgery, 30 min post treatment, FIG. 1; for antiallodynic effect over time: tested 30, 60, 120, 240 min
Experimental: Protocol. The antiallodynic activity of (+)- and (−)-beloxepin were tested in vivo using the L5-Single Nerve Ligation model of non-nociceptive neuropathic pain as described in LaBuda & Little, 2005, J. Neurosci. Methods 144:175-181. The test animals were placed in a Plexiglas chamber (10 cm×20 cm×25 cm) and habituated for 15 minutes. The chamber was positioned on top of a mesh screen so that von Frey monofilaments could be presented to the plantar surface of both hindpaws. Measurement of tactile sensitivity for each hind paw were obtained using the up/down method (Dixon, 1980, Annu. Rev. Pharmacol. Toxicol. 20:441-462) with seven Frey monofilaments (0.4, 1, 2, 4, 6, 8 and 15 grams). Each trial started with a von Frey force of 2 grams delivered to the right hind paw for approximately 1-2 seconds and then the left hind paw. If there was no withdrawal response, the next higher force was delivered. If there was a response, the next lower force was delivered. This procedure was performed until no response was made at the highest force (15 grams) or until four stimuli were administered following the initial response. The 50% paw withdrawal threshold for each paw was calculated using the following formula: [Xth]log=[vFr]log+ky, where [vFr] is the force of the last von Frey used, k=0.2249 which is the average interval (in log units) between the von Frey monofilaments, and y is a value that depends upon the pattern of withdrawal responses (Dixon, 1980, supra). […] Testing for tactile sensitivity was performed twice and the mean 50% withdrawal value assigned as the tactile sensitivity for the right and left paws for each animal.
Results. The antiallodynic effects produced by (+)-beloxepin (30 mg/kg IP) and (−)-beloxepin (30 mg·kg IP) in L5 SNL rats 8 days post surgery are illustrated in FIG. 1. In this experiment, at 8 days post surgery, rats were treated with vehicle or beloxepin enantiomers (30 mg/kg IP) and tested for tactile allodynia at 30 min post treatment. […] No side effects were observed following treatment with either enantiomer.
The antiallodynic effects produced by (+)-beloxepin (30 mg/kg IP) in L5 SNL rats 14 days post surgery are illustrated in FIG. 2. In this experiment, at 14 days post surgery, rats were treated with vehicle or (+)-beloxepin and tested for tactile allodynia at 30, 60, 120 and 240 min post treatment. Vehicle treated rats were tested at 30 min post treatment.
Protocol. A time course experiment was performed with (−)-beloxepin (60 mg/kg PO) in L5 SNL rats at 7 days post-surgery. Rats were tested at 30, 60, 120, and 240 minutes post-drug.
Protocol. A time course experiment was also performed with (+)-beloxepin (60 mg/kg PO) in L5 SNL rats at 14 days post-surgery. Rats were tested at 30, 60, 120, and 240 minutes post-drug.

[4] = system: rat hindpaw incision model; test: Rat hindpaw incision model of post-operative pain, tactile allodynia; assay type: in vivo; settings: 30 mg/kg IP, 24 hours post-surgery, tested 30, 60, 120, 240 min
Experimental: Protocol. A time course experiment was also performed with (−)-beloxepin in the hindpaw incision model. At 24 hours post-surgery, rats received vehicle or (−)-beloxepin (30 mg/kg IP). Rats were tested for tactile allodynia at 30, 60, 120 and 240 minutes after administration of (−)-beloxepin.
Protocol. Another time course experiment was performed with (+)-beloxepin in the hindpaw incision model. At 24 hours post-surgery, rats received vehicle or (+)-beloxepin (30 mg/kg IP). Rats were tested for tactile allodynia at 30, 60, 120 and 240 minutes after administration of (+)-beloxepin.

[5] = system: rat 50° C. hot plate model; test: Rat 50° C. hot plate assay; assay type: in vivo; settings: for antinociceptive activity: 30 mg/kg IP, 30, 60 and 120 minutes after treatment
Experimental: Protocol. Rats were treated with vehicle, 30 mg/kg IP of (−)-beloxepin, or 30 mg/kg IP of (+)-beloxepin and then were placed on a hot plate (50° C.) 30, 60, or 120 minutes after administration of the vehicle or beloxepin enantiomer. Rats treated with 3 mg/kg SC of morphine and tested 30 min post-treatment were used as a positive control in these experiments.

T1 sequence (Q63380 1-617): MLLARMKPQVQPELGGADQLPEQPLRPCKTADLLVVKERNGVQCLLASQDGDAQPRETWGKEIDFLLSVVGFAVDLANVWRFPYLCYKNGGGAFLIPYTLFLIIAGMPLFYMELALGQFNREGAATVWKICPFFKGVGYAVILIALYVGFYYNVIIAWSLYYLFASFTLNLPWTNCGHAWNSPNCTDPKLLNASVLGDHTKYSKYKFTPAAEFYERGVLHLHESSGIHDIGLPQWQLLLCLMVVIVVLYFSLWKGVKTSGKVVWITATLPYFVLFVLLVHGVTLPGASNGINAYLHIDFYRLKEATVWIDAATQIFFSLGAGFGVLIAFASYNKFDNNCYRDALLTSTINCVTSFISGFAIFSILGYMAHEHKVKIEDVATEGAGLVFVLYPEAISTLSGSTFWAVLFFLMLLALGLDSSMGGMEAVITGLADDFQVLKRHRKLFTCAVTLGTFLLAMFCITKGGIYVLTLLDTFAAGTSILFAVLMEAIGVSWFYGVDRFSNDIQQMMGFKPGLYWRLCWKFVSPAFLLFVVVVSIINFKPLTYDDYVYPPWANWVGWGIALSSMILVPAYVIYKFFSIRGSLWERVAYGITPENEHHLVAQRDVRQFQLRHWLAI

SMILES: Cc1cccc2c1Oc1ccccc1C1(O)CCN(C)CC21 (racemic) [(±)-beloxepin, cis-1,2,3,4,4a,13b-hexahydro-2,10-dimethyldiben-[2,3:6,7]oxepino[4,5c]pyridine-4-a-ol]]
- IC50 (NET): 130 nM
- affinity for noradrenergic, histaminergic and cholinergic receptors [1]: no or very weak affinity
- affinity for the 5HT2C receptor (5HT2C receptor): modest affinity
- antidepressant properties ([2]; acquired immobility, reserpine-induced hypothermia, conditioned avoidance): exhibit antidepressant properties
- sedation, motor impairment or other side effects ([2]; preclinical depression tests): did not cause sedation, motor impairment or other untoward side effects
- total duration of nocturnal REM sleep (REM sleep; EEG): decreased
- REM latency (REM sleep; acutely and sub-chronically, EEG): dose-dependently prolonged REM latency
- sedation or other side effects (REM sleep; human volunteers): No sedation or other side effects were observed
- adverse effects ([3]; healthy volunteers, up to 800 mg/day): No important adverse effects were observed
- tmax ([3]; steady-state, doses of 50 to 800 mg, healthy normal subjects): 1.17 h
- fraction of patients with moderate to good response (depression): ⅔
- efficacy for the treatment of major depression (major depression): insufficient efficacy

SMILES: Cc1cccc2c1Oc1ccccc1C1(O)CCN(C)CC21 (single isomer, unassigned; (+)) [(+)-beloxepin]
- antiallodynic effect (L5 SNL rats; 30 mg/kg IP): not statistically significant, (+)-beloxepin produced an antiallodynic effect that was comparable to that observed with (−)-beloxepin
- maximal efficacy, % of the threshold of vehicle-treated rats (L5 SNL rats; 30 mg/kg IP, 14 days post surgery): 423%
- antiallodynic effect over time (L5 SNL rats; 30 mg/kg IP, 14 days post surgery, FIG. 2): significant antiallodynic effects at the 30 and 60 min time points
- antiallodynic effect over time (L5 SNL rats; 60 mg/kg PO, 14 days post-surgery, FIG. 4): did not produce significant antiallodynic effects at any time point
- antiallodynic effect over time [4]: significant antiallodynic effect at the 30 and 60 minute time points
- antinociception, % MPE values ([5]; 30 mg/kg IP, 30, 60, 120 min, FIG. 8): 10-17%
- antinociceptive activity [5]: no antinociception was observed

SMILES: Cc1cccc2c1Oc1ccccc1C1(O)CCN(C)CC21 (single isomer, unassigned; (-)) [(−)-beloxepin]
- IC50 (NET; [3H]norepinephrine, rat hypothalamus synaptosomes, 20 min 37° C.): 120 nM
- antiallodynic effect (L5 SNL rats; 30 mg/kg IP): significant antiallodynia
- antiallodynic effect over time (L5 SNL rats; 60 mg/kg PO, 7 days post-surgery, FIG. 3): significant antiallodynic effects at the 60 and 120 minute time points
- antiallodynic effect over time [4]: significant antiallodynic effect at the 30 and 120 minute time point
- antinociceptive activity [5]: robust antinociceptive activity at 30, 60, and 120 minutes after treatment

— patent US20090233958A1, “(+)-BELOXEPIN AND METHODS FOR ITS SYNTHESIS AND USE” (priority 2008, published 2009)
